PMC7887755, “Structure–Activity Relationships of Pyrazolo[1,5-a]pyrimidin-7(4H)-ones as Antitubercular Agents” (ACS Infectious Diseases, 2021)
≈ marks a conversion by molar mass, not a printed value. Where “and” joins values, the source holds several entries; their conditions need not be identical. Identical values can stand only once. Like-named read-outs stand apart in the source and are kept apart here.

Experiments:
Mtb H37Rv [1] = test: microbe, parasite or virus in culture; format: cell-based, Mycobacterium tuberculosis; settings: for MIC: Mycobacterium tuberculosis, H37RV
Mtb strain H37Rv = test: MIC against Mtb H37Rv under various media/carbon sources; format: cell-based; settings: Mycobacterium tuberculosis
[2] = tested on: cell wall responsive iniBAC promoter (piniB-LUX reporter strain); format: cell-based, Mycobacterium tuberculosis
[3] = tested on: DNA damage responsive recA and radA reporters; format: cell-based, Mycobacterium tuberculosis
iron uptake of Mtb H37Rv = test: 55Fe iron uptake by Mtb; format: cell-based, Mycobacterium tuberculosis; settings: 55Fe-labelled medium; 1 at 10 μM, DFO at 39 μM
Mtb H37Rv WT = test: microbe, parasite or virus in culture; format: cell-based; settings: Mycobacterium tuberculosis
[4] = Microsomal stability, mouse; format: in vitro ADME; settings: liver microsomes of female mouse, read-out: % Remaining after 2 h incubation Mouse
Description: (§1) % Remaining after 2 h incubation
(§2) Compound Chemical Structure
(§3) Table S1. Microsomal stability of some pyrazolo[1,5-a]pyrimidin-7(4H)-one derivatives
(§4) Microsomal stability was tested in microsomes from liver of female mouse (M9566 from Sigma-Aldrich)a or microsomes
(§5) from human liver (M0317 from Sigma-Aldrich)b.

[5] = Microsomal stability, human; format: in vitro ADME; settings: human liver microsomes, read-out: % Remaining after 2 h incubation Human
Description: as §1, §2, §3, §4, §5

in vitro = settings: human, 24 h
J774 cells = test: Murine macrophage cytotoxicity (luminescence-based); settings: Mus musculus; murine macrophage cell line J774, 24 h; read-out: IC50 against J774 cells
[6] = tested on: intramacrophage Mtb H37Rv; test: Ex vivo efficacy against intracellular Mtb in J774 macrophages; format: cell-based, Mycobacterium tuberculosis
Mtb H37Rv [7] = test: MIC under iron-depleted (DFO) or iron-replete (FeCl3) conditions; format: cell-based, Mycobacterium tuberculosis
[8] = pH 6, read-out: MIC nitrate/butyrate
[9] = Cytotoxicity (IC50) Galactose, HepG2 cells in DMEM/10% FBS with galactose
[10] = Cytotoxicity (IC50) Glucose, HepG2 cells in DMEM/10% FBS supplemented with glucose

| Structure (SMILES) | MIC (Mtb H37Rv [1]; read-out: MIC in 7H9 ADC) [µM] | MIC (Mtb H37Rv [1]; read-out: MIC in 7H9 GCas) [µM] | MIC (Mtb strain H37Rv; GAST/Fe, read-out: MIC GAST) [µM] | MIC (Mtb strain H37Rv; [8]) [µM] | MIC (Mtb strain H37Rv; read-out: MIC 7H9) [µM] | MIC (Mtb strain H37Rv; read-out: MIC Chol) [µM] | MIC (Mtb strain H37Rv; read-out: MIC GBSA/DBSA) [µM] | reporter gene assay cell wall [2] | reporter gene assay DNA damage [3] | effect on iron uptake (iron uptake of Mtb H37Rv) | MIC (Mtb H37Rv WT) [µM] | remaining at 2 h [4] [%] | remaining at 2 h [5] [%] | IC50 (in vitro; [9]) [µM] | IC50 (in vitro; [10]) [µM] | improvement in MIC compared to the initial hit 1 (Mtb H37Rv [1]) [fold] | IC50 (J774 cells) [µM] | increase in potency under iron-depleted conditions (MIC ratio) (Mtb H37Rv [7]) [fold] | other results |
| --- | --- | --- | --- | --- | --- | --- | --- | --- | --- | --- | --- | --- | --- | --- | --- | --- | --- | --- | --- |
| Cc1nn2c(=O)cc(-c3ccccc3)[nH]c2c1-c1ccccc1 [Compound 1, 2-Methyl-3,5-diphenylpyrazolo[1,5-a]pyrimidin-7(4H)-one] | 12.5 (≈ 3.77 µg/mL) | 3.12 (≈ 0.94 µg/mL) | 2.3 (≈ 0.693 µg/mL) | 12.5 (≈ 3.77 µg/mL) | 12.5 (≈ 3.77 µg/mL) | 9.4 (≈ 2.83 µg/mL) | 12.5 (≈ 3.77 µg/mL) | no | no | did not inhibit iron uptake | 1.2 (≈ 0.362 µg/mL) | 61 | 66 | > 100 | > 100 |  |  |  |  |
| Cc1nn2c(=O)cc(-c3ccc(F)c(F)c3)[nH]c2c1-c1ccccc1 [Compound P19, 5-(3,4-Difluorophenyl)-2-methyl-3-phenylpyrazolo[1,5-a]pyrimidin-7(4H)-one] | 2.73 (≈ 0.921 µg/mL) | 1.56 (≈ 0.526 µg/mL) | 1.2 (≈ 0.405 µg/mL) | 1.56 (≈ 0.526 µg/mL) | 3.13 (≈ 1.06 µg/mL) | 3.13 (≈ 1.06 µg/mL) | 3.13 (≈ 1.06 µg/mL) | no | no |  | 0.78 (≈ 0.263 µg/mL) | 66 | 77 | 58.9 | > 100 | 5 | 29.6 ± 1.2 | ≤ 2 | reduction of bacterial burden [6]: ~0.5 logs |
| Cc1nn2c(=O)cc(-c3ccc(Cl)c(Cl)c3)[nH]c2c1-c1ccc(F)cc1 [Compound P24, 5-(3,4-Dichlorophenyl)-3-(4-fluorophenyl)-2-methylpyrazolo[1,5-a]pyrimidin-7(4H)-one] | 2.34 (≈ 0.908 µg/mL) | 3.12 (≈ 1.21 µg/mL) |  |  |  |  |  |  |  |  | 1.56 (≈ 0.606 µg/mL) |  |  | 38.7 | > 100 | 8 | 22.5 ± 2.1 | ≤ 2 |  |
| Cc1nn2c(=O)cc(-c3ccc(F)c(F)c3)[nH]c2c1-c1ccc(Cl)cc1 [Compound P25, 3-(4-Chlorophenyl)-5-(3,4-difluorophenyl)-2-methylpyrazolo[1,5-a]pyrimidin-7(4H)-one] | 1.95 (≈ 0.725 µg/mL) | 3.12 (≈ 1.16 µg/mL) |  |  |  |  |  |  |  |  |  |  |  | 52.6 | 94.3 | 8 | 20.2 ± 0.8 |  | reduction of bacterial counts [6]: 1.5 orders of magnitude and 2 orders of magnitude |
| CC(=O)N(O)CCCCCNC(=O)CCC(=O)N(O)CCCCCNC(=O)CCC(=O)N(O)CCCCCN [DFO, desferrioxamine, reference compound] |  |  |  |  |  |  |  |  |  | completely inhibited uptake |  |  |  |  |  |  |  |  | MIC (Mtb H37Rv [7]; Mycobacterium tuberculosis, H37RV, MIC of the iron-modulating additive itself): 250 µM |
